Measurements taken from patent US6414014B1 (Bristol-Myers Squibb Company, priority 1992, dated 2002).

Experiments:
[1] = Hypersensitivity reactions (HSR) in the randomized taxol study; format: in vivo, patients
Description: Patients with platinum pretreated recurrent ovarian cancer were randomized to a 135 or 175 mg/m^2 dose arm, administered as a 3-hour or 24-hour IV infusion, which was repeated every three weeks. Responses were evaluated every two cycles.
A nurse remained with each patient for the first hour of each infusion. Temperature, pulse, blood pressure, and respiration were taken preinfusion, every 15 minutes for the first hour, every thirty minutes for the next 2 hours, hourly for the next 4 hours, and every other hour until the end of the infusion (for patients receiving the 24-hour infusion). Other observations were also documents, such as rash/redness of the skin, hives, vomiting, nausea, and any other symptoms including neuropathy and skin rashes.

[2] = Hematologic toxicity (myelotoxicity) in the randomized taxol study, weekly blood counts; format: in vivo, patients
Description: Responses were evaluated every two cycles.
Eligible patients were randomized according to a computerized randomization log. During therapy, hematology data (hemoglobin, white blood cell count, granulocytes and platelets) were collected, and toxicity assessments were continuously made. After each cycle, a physical history update was recorded, as well as tumor measurement, performance status (ECOG), hematology, chemistry (serum creatinine, billirubin, alkaline phosphatase, (SLOT (AST), CA125) and a toxicity assessment. A quality of life assessment was also made after each cycle, and every two months until six months after treatment stopped.
White blood cell (WBC) counts, absolute neutrophil count (ANC), platelet counts, and hemoglobin (Hb) concentration were the primary variables used to evaluate treatment related myelosuppression. The World Health Orgination, WHO, grades of nadir for the entire study population of 157 patients during course 1 are presented in the table below. Leukopenia and neutropenia were the most frequent and severe hemotologic adverse effects observed during the first couse of treatment. 53% (83/156) of the patients had Grade III or IV neutropenia, while 39% (61/157) had Grade III or IV leukopenia.

[3] = TOTAL, all four arms, 528 courses analyzed
[4] = arm 135/3 (mg/m^2/infusion hours), 132 courses analyzed
[5] = arm 135/24 (mg/m^2/infusion hours), 141 courses analyzed
[6] = arm 175/3 (mg/m^2/infusion hours), 92 courses analyzed
[7] = arm 175/4 (mg/m^2/infusion hours), 163 courses analyzed
[8] = TOTAL, all four arms, n = 157, course 1
[9] = arm 135/3 (mg/m^2/infusion hours), n = 39, course 1
[10] = arm 135/24 (mg/m^2/infusion hours), n = 44, course 1
[11] = arm 175/3 (mg/m^2/infusion hours), n = 29, course 1
[12] = arm 175/4 (mg/m^2/infusion hours), n = 45, course 1

Structure (SMILES): CC(=O)O[C@H]1C(=O)[C@@]2(C)[C@H]([C@H](OC(=O)c3ccccc3)[C@]3(O)C[C@H](OC(=O)[C@H](O)[C@@H](NC(=O)c4ccccc4)c4ccccc4)C(C)=C1C3(C)C)[C@]1(OC(C)=O)CO[C@@H]1C[C@@H]2O [taxol]
- hypersensitivity reactions which required acute therapeutic intervention ([1]; 2 of 157 patients): 1%
- severe hypersensitivity reaction in one patient ([1]; 24-hour arm, course 2 at dose reduced by 20%, less than 1 ml infused): tachychardia and shortness of breath
- patients exhibiting some type of hypersensitivity reaction ([1]; 57/157, all arms): 35%
- Patients reporting a HSR ([1]; TOTAL, all four arms, 157 patients analyzed): 57 (36) n (%)
- Courses with a reported HSR [1, 3]: 136 (26) n (%)
- Type of HSR Per Course: Arrhytheria [1, 3]: 1 n (%)
- Type of HSR Per Course: Chest pain [1, 3]: 1 n (%)
- Type of HSR Per Course: Dyspriea [1, 3]: 5 n (%)
- Type of HSR Per Course: Ederma face [1, 3]: 2 n (%)
- Type of HSR Per Course: Eye disorder [1, 3]: 2 n (%)
- Type of HSR Per Course: Flushing [1, 3]: 103 n (%)
- Type of HSR Per Course: Headache [1, 3]: 1 n (%)
- Type of HSR Per Course: Hypertension [1, 3]: 1 n (%)
- Type of HSR Per Course: Hypotension [1, 3]: 13 n (%)
- Type of HSR Per Course: Nausea/Vomiting [1, 3]: 1 n (%)
- Type of HSR Per Course: Pruritis [1, 3]: 2 n (%)
- Type of HSR Per Course: Rash [1, 3]: 21 n (%)
- Type of HSR Per Course: Tachychardia [1, 3]: 1 n (%)
- Patients reporting a HSR ([1]; arm 135/3 (mg/m^2/infusion hours), 39 patients analyzed): 11 (28) n (%)
- Courses with a reported HSR [1, 4]: 23 (17) n (%)
- Type of HSR Per Course: Dyspriea [1, 4]: 2 n (%)
- Type of HSR Per Course: Eye disorder [1, 4]: 2 n (%)
- Type of HSR Per Course: Flushing [1, 4]: 15 n (%)
- Type of HSR Per Course: Hypotension [1, 4]: 1 n (%)
- Type of HSR Per Course: Pruritis [1, 4]: 2 n (%)
- Type of HSR Per Course: Rash [1, 4]: 6 n (%)
- Patients reporting a HSR ([1]; arm 135/24 (mg/m^2/infusion hours), 44 patients analyzed): 18 (41) n (%)
- Courses with a reported HSR [1, 5]: 44 (31) n (%)
- Type of HSR Per Course: Chest pain [1, 5]: 1 n (%)
- Type of HSR Per Course: Dyspriea [1, 5]: 3 n (%)
- Type of HSR Per Course: Flushing [1, 5]: 40 n (%)
- Type of HSR Per Course: Headache [1, 5]: 1 n (%)
- Type of HSR Per Course: Hypotension [1, 5]: 1 n (%)
- Type of HSR Per Course: Nausea/Vomiting [1, 5]: 1 n (%)
- Type of HSR Per Course: Rash [1, 5]: 6 n (%)
- Type of HSR Per Course: Tachychardia [1, 5]: 1 n (%)
- Patients reporting a HSR ([1]; arm 175/3 (mg/m^2/infusion hours), 29 patients analyzed): 12 (41) n (%)
- Courses with a reported HSR [1, 6]: 23 (25) n (%)
- Type of HSR Per Course: Ederma face [1, 6]: 1 n (%)
- Type of HSR Per Course: Flushing [1, 6]: 16 n (%)
- Type of HSR Per Course: Hypotension [1, 6]: 1 n (%)
- Type of HSR Per Course: Rash [1, 6]: 6 n (%)
- Patients reporting a HSR ([1]; arm 175/4 (mg/m^2/infusion hours), 45 patients analyzed): 6 (36) n (%)
- Courses with a reported HSR [1, 7]: 46 (28) n (%)
- Type of HSR Per Course: Arrhytheria [1, 7]: 1 n (%)
- Type of HSR Per Course: Ederma face [1, 7]: 1 n (%)
- Type of HSR Per Course: Flushing [1, 7]: 32 n (%)
- Type of HSR Per Course: Hypertension [1, 7]: 1 n (%)
- Type of HSR Per Course: Hypotension [1, 7]: 10 n (%)
- Type of HSR Per Course: Rash [1, 7]: 3 n (%)
- patients with grade 4 neutropenia ([2]; 3-hour infusion, 8/68, course 1): 12%
- patients with grade 4 neutropenia ([2]; 24-hour taxol infusion, 51/88, course 1): 58%
- AMC Count, WHO grade 0 nadir, patients [2, 8]: 37 (24) n (%)
- AMC Count, WHO grade I nadir, patients [2, 8]: 13 (8) n (%)
- AMC Count, WHO grade II nadir, patients [2, 8]: 23 (15) n (%)
- AMC Count, WHO grade III nadir, patients [2, 8]: 24 (15) n (%)
- AMC Count, WHO grade IV nadir, patients [2, 8]: 59 (38) n (%)
- Platelet Count, WHO grade 0 nadir, patients [2, 8]: 147 (94) n (%)
- Platelet Count, WHO grade I nadir, patients [2, 8]: 6 (4) n (%)
- Platelet Count, WHO grade II nadir, patients [2, 8]: 2 (1) n (%)
- Platelet Count, WHO grade III nadir, patients [2, 8]: 1 (1) n (%)
- Platelet Count, WHO grade IV nadir, patients [2, 8]: 1 (1) n (%)
- WBC Count, WHO grade 0 nadir, patients [2, 8]: 31 (20) n (%)
- WBC Count, WHO grade I nadir, patients [2, 8]: 29 (18) n (%)
- WBC Count, WHO grade II nadir, patients [2, 8]: 36 (23) n (%)
- WBC Count, WHO grade III nadir, patients [2, 8]: 50 (32) n (%)
- WBC Count, WHO grade IV nadir, patients [2, 8]: 11 (7) n (%)
- patients with severe neutropenia (WHO Grade III and IV) during at least one course ([2]; all arms): 63%
- AMC Count, WHO grade 0 nadir, patients [2, 9]: 18 (46) n (%)
- AMC Count, WHO grade I nadir, patients [2, 9]: 8 (21) n (%)
- AMC Count, WHO grade II nadir, patients [2, 9]: 8 (21) n (%)
- AMC Count, WHO grade III nadir, patients [2, 9]: 4 (10) n (%)
- AMC Count, WHO grade IV nadir, patients [2, 9]: 1 (3) n (%)
- Platelet Count, WHO grade 0 nadir, patients [2, 9]: 36 (92) n (%)
- Platelet Count, WHO grade I nadir, patients [2, 9]: 2 (5) n (%)
- Platelet Count, WHO grade II nadir, patients [2, 9]: 1 (3) n (%)
- Platelet Count, WHO grade III nadir, patients [2, 9]: 0 n (%)
- Platelet Count, WHO grade IV nadir, patients [2, 9]: 0 n (%)
- WBC Count, WHO grade 0 nadir, patients [2, 9]: 15 (38) n (%)
- WBC Count, WHO grade I nadir, patients [2, 9]: 13 (33) n (%)
- WBC Count, WHO grade II nadir, patients [2, 9]: 7 (18) n (%)
- WBC Count, WHO grade III nadir, patients [2, 9]: 3 (8) n (%)
- WBC Count, WHO grade IV nadir, patients [2, 9]: 1(3) n (%)
- AMC Count, WHO grade 0 nadir, patients [2, 10]: 6 (14) n (%)
- AMC Count, WHO grade I nadir, patients [2, 10]: 2 (15) n (%)
- AMC Count, WHO grade II nadir, patients [2, 10]: 7 (16) n (%)
- AMC Count, WHO grade III nadir, patients [2, 10]: 6 (14) n (%)
- AMC Count, WHO grade IV nadir, patients [2, 10]: 23 (52) n (%)
- Platelet Count, WHO grade 0 nadir, patients [2, 10]: 43 (98) n (%)
- Platelet Count, WHO grade I nadir, patients [2, 10]: 1 (2) n (%)
- Platelet Count, WHO grade II nadir, patients [2, 10]: 0 n (%)
- Platelet Count, WHO grade III nadir, patients [2, 10]: 0 n (%)
- Platelet Count, WHO grade IV nadir, patients [2, 10]: 0 n (%)
- WBC Count, WHO grade 0 nadir, patients [2, 10]: 4 (9) n (%)
- WBC Count, WHO grade I nadir, patients [2, 10]: 5 (11) n (%)
- WBC Count, WHO grade II nadir, patients [2, 10]: 11 (25) n (%)
- WBC Count, WHO grade III nadir, patients [2, 10]: 20 (46) n (%)
- WBC Count, WHO grade IV nadir, patients [2, 10]: 4 (9) n (%)
- AMC Count, WHO grade 0 nadir, patients [2, 11]: 11 (38) n (%)
- AMC Count, WHO grade I nadir, patients [2, 11]: 2 (7) n (%)
- AMC Count, WHO grade II nadir, patients [2, 11]: 3 (10) n (%)
- AMC Count, WHO grade III nadir, patients [2, 11]: 6 (21) n (%)
- AMC Count, WHO grade IV nadir, patients [2, 11]: 7 (24) n (%)
- Platelet Count, WHO grade 0 nadir, patients [2, 11]: 29 (100) n (%)
- Platelet Count, WHO grade I nadir, patients [2, 11]: 0 n (%)
- Platelet Count, WHO grade II nadir, patients [2, 11]: 0 n (%)
- Platelet Count, WHO grade III nadir, patients [2, 11]: 0 n (%)
- Platelet Count, WHO grade IV nadir, patients [2, 11]: 0 n (%)
- WBC Count, WHO grade 0 nadir, patients [2, 11]: 11 (38) n (%)
- WBC Count, WHO grade I nadir, patients [2, 11]: 6 (21) n (%)
- WBC Count, WHO grade II nadir, patients [2, 11]: 7 (24) n (%)
- WBC Count, WHO grade III nadir, patients [2, 11]: 5 (17) n (%)
- WBC Count, WHO grade IV nadir, patients [2, 11]: 0 — n (%)
- AMC Count, WHO grade 0 nadir, patients [2, 12]: 2 (5) n (%)
- AMC Count, WHO grade I nadir, patients [2, 12]: 1 (2) n (%)
- AMC Count, WHO grade II nadir, patients [2, 12]: 5 (11) n (%)
- AMC Count, WHO grade III nadir, patients [2, 12]: 8 (18) n (%)
- AMC Count, WHO grade IV nadir, patients [2, 12]: 28 (63) n (%)
- Platelet Count, WHO grade 0 nadir, patients [2, 12]: 39 (87) n (%)
- Platelet Count, WHO grade I nadir, patients [2, 12]: 3 (7) n (%)
- Platelet Count, WHO grade II nadir, patients [2, 12]: 1 (2) n (%)
- Platelet Count, WHO grade III nadir, patients [2, 12]: 1 (2) n (%)
- Platelet Count, WHO grade IV nadir, patients [2, 12]: 1 (2) n (%)
- WBC Count, WHO grade 0 nadir, patients [2, 12]: 1 (2) n (%)
- WBC Count, WHO grade I nadir, patients [2, 12]: 5 (11) n (%)
- WBC Count, WHO grade II nadir, patients [2, 12]: 11 (25) n (%)
- WBC Count, WHO grade III nadir, patients [2, 12]: 22 (49) n (%)
- WBC Count, WHO grade IV nadir, patients [2, 12]: 6 (13) n (%)
- severe leukopenia (grade 3 and grade 4 pooled), 24-hour versus 3-hour infusion ([2]; course 1): more frequently
- patients with Grade III or IV leukopenia ([2]; course 1, 61/157, all arms): 39%
- patients with Grade III or IV neutropenia ([2]; course 1, 83/156, all arms): 53%
- patients with severe thrombocytopenia ([2]; course 1, two patients, all arms): 1%
- incidence of severe neutropenia ([2]; high dose arms, 55/74): 74%
- incidence of severe neutropenia ([2]; long-term infusion arms): 85%
- anemia of any grade in patients with normal baseline Hb values ([2]; long-term infusion, 26/55): 47%
- incidence of severe neutropenia ([2]; low dose arms, 43/83): 52%
- anemia of any grade in patients with normal baseline Hb values ([2]; short-term infusion): 28%
- incidence of severe neutropenia ([2]; short-term infusion arms): 32%
